Experimental data as given in patent publication US20170001956A1, “HYDROCARBYL CARBOXYBETAINE AND METHOD FOR PREVENTING HOFMANN ELIMINATION IN ALKALINE ENVIRONMENT” (NATIONAL CHUNG CHENG UNIVERSITY, priority 2015, published 2017).

Test system: Staphylococcus aureus
Details: treated with 1M NaOH; compared to CB treated with 1M NaOH (CB-NaOH); FIG. 7

Question: Which “adsorption resistance against the biofouling of S. aureus” value does the source give for `CC(C[N+](C)(C)CCSSCC[N+](C)(C)CC(C)C(=O)O)C(=O)O` (stereo not drawn) [α-mCB, carboxy-alpha-methyl-betaine disulfide] here?
Answer: better adsorption resistance
